Eight compounds from US7709516B2, “Helix 12 directed non-steroidal antiandrogens” (Endorecherche, Inc., priority 2005, dated 2010) can be followed below.

Experiment [1] relates to rat prostate, seminal vesicle, levator ani muscle. The experiment is described as follows: Systemic antiandrogenic activity in orchidectomized immature male rats with DHT implant. It counts as in vivo. The following applies: Table 3, rat +DHT, 0.5 mg/animal daily 7 days.
For another experiment, the target named is T1, Human Androgen Receptor (Homo sapiens, UniProt P10275).
T1 sequence (P10275 1-920): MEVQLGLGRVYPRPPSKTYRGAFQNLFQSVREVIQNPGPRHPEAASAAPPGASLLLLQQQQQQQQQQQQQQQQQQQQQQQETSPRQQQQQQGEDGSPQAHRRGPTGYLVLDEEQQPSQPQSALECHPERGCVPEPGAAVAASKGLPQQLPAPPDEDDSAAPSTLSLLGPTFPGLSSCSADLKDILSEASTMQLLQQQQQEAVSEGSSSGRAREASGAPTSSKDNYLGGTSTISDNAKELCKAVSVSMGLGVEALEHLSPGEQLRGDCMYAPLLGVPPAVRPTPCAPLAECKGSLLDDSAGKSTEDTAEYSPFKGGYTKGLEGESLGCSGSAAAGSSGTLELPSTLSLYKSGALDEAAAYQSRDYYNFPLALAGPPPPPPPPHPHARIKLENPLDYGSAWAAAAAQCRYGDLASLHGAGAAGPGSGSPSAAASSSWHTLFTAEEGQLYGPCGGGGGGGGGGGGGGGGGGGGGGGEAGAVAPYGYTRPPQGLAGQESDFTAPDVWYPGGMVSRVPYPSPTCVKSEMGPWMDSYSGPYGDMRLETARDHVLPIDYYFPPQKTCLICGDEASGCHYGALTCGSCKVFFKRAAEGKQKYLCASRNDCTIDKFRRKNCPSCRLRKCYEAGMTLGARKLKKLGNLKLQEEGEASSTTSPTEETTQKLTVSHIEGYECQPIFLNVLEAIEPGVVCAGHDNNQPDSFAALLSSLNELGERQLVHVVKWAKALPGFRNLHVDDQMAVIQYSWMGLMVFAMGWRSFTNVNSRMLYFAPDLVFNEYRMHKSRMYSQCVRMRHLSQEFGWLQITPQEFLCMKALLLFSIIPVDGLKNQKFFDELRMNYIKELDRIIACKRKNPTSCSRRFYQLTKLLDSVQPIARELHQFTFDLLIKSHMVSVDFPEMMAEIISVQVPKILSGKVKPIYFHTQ
In words: Androgen receptor binding assay ([3H]R1881, HAP) in cytosol of HEK-293 cells transfected with hAR. The settings on record: Table 3; relative to R1881 = 100, transfected cells.

Experiment [2] deals with Shionogi mouse mammary carcinoma cells. In words: Androgenic/antiandrogenic activity: inhibition of DHT-stimulated Shionogi cell number. It counts as cell-based. The settings on record: DHT-stimulated Shionogi cell number, agonist reported when compound stimulates the cells; for IC50: Mus musculus, read-out: Shionogi Antiandrogenic Activity IC50, Table 3; for Shionogi Antiandrogenic Activity IC50: Table 3.

In experiment [3] the test system is rat prostate, seminal vesicle, levator ani muscle. In words: Systemic androgenic activity in orchidectomized immature male rats. In kind it is in vivo. The settings on record: 168 h, 0.2 mg/animal daily 7 days. The text has this:
Column 7 represents the % of androgenic efficacy in rat prostate, expressed in percentage of stimulation:
W is the weight of the prostate.
Column 8 represents the % of androgenic efficacy in rat seminal vesicle, expressed in percentage of stimulation:
W is the weight of the seminal vesicle.
Column 9 represents the % of androgenic efficacy in rat levator ani muscle, expressed in percentage of stimulation: […]
Immature male rats (Crl:CD(SD)Br) 22 to 24-day old were obtained from Charles-River, Inc. (St-Constant, Quebec, Canada) and housed up to 5 per cage in plastic bins in a temperature (23±1° C.)— and light (12 h light/day, lights on at 7h15)— controlled environment. The rats were fed rodent chow and tap water ad libitum. The day following their arrival, the animals were orchidectomized (CX) under Isoflurane anesthesia via scrotal route and randomly assigned to groups of 5 animals.
To evaluate the antiandrogenic activity, tested compounds were administered subcutaneously or orally once daily at a dose of 0.5 mg/animal for antiandrogenitic activity or 0.2 mg/animal for androgenic activity for 7 days (SD 1 to 7). Compounds were solubilized (when possible) in dimethylsulfoxide (DMSO, 10% final concentration) and administered as suspension in 0.4% methylcellulose. […] One group of animals received the antiandrogen Flutamide as reference. The animals were killed by cervical dislocation under isoflurane anesthesia on the 8th morning following castration. The ventral prostate and seminal vesicles were rapidly dissected and weighed.
3. Calculations and Statistical Analysis
W is the weight of the prostate, the seminal vesicle or levator ani.

Setting [4] is: sc, Table 3, s.c (marked in prostate cell), read-out: % Stimulation Lev.Ani.
Setting [5] is: sc, Table 3, s.c (marked in prostate cell), read-out: % Stimulation SV.
Setting [6] is: sc, Table 3, s.c, read-out: % Stimulation Prostate.
The mark [7] stands for this setting: po, Table 3, p.o (marked in prostate cell), read-out: % Stimulation Lev.Ani.
Where [8] appears, read: po, Table 3, p.o (marked in prostate cell), read-out: % Stimulation SV.
Where [9] appears, read: po, Table 3, p.o, read-out: % Stimulation Prostate.

Read-outs that look alike come from different tables or passages of the source.

One may read the IC50 as the concentration needed to halve the response being measured. As to `Cc1c(N2C(=O)C(C)(C)N(CCCOc3ccc(CNC(C)C)cc3)C2=S)ccc(C#N)c1Cl` [EM-7198], the “% Inhibition Prostate” value in experiment [1] (s.c) is 15 s.c %. Moreover, the “Human Androgen Receptor Binding (%) RBA R1881 = 100” value at Human Androgen Receptor is given as 44%. Also, the IC50 in experiment [2] was 10 nM. The results for the change in vivo at 0.2 mg in experiment [3] (setting [4]), in experiment [3] (setting [5]) and in experiment [3] (setting [6]) were 182%, 106% and 65%, respectively.
In the case of `Cc1c(N2C(=O)C(C)(C)N(CCCOc3ccc(CN(C)C)cc3)C2=S)ccc(C#N)c1Cl` [EM-7298], the “% Inhibition Lev.Ani” value in experiment [1] (s.c (marked in prostate cell)) stood at 14%. Moreover, the “% Inhibition Prostate” value in experiment [1] (s.c) came to 36 s.c %. The “Human Androgen Receptor Binding (%) RBA R1881 = 100” value on Human Androgen Receptor is 61%. In experiment [2], the 50% inhibitory concentration (IC50) is 8.2 nM. Moreover, the change in vivo at 0.2 mg came out at 103% in experiment [3] (setting [4]), 29% in experiment [3] (setting [5]) and 33% in experiment [3] (setting [6]).
As to `Cc1cc(CN2CCOCC2)ccc1OCCCN1C(=S)N(c2ccc(C#N)c(Cl)c2C)C(=O)C1(C)C` [EM-8255], the “% Inhibition Prostate” value in experiment [1] (s.c) was 17 s.c %. In addition, the “Human Androgen Receptor Binding (%) RBA R1881 = 100” value at Human Androgen Receptor is reported as 76%. Moreover, the “Shionogi Antiandrogenic Activity IC50” value in experiment [2] was “Partial agonist”. In addition, the values for the change in vivo at 0.2 mg in experiment [3] (setting [4]), in experiment [3] (setting [5]) and in experiment [3] (setting [6]) were 80%, 31% and 32%, respectively.
Consider `Cc1c(N2C(=O)C(C)(C)N(CCCOc3ccc(S(C)(=O)=O)cc3)C2=S)ccc(C#N)c1Cl` [EM-8260, 4-(3-{3-[4-(1-methylsulfonyl)-phenoxy]-propyl}-4,4-dimethyl-5-oxo-2-thioxo-imidazolidin-1-yl)-2-chloro-3-methyl-benzonitrile], for which, in experiment [1] (p.o (marked in prostate cell)), the “% Inhibition Lev.Ani” value is 24%. Besides, the “% Inhibition SV” value in experiment [1] (p.o (marked in prostate cell)) was 54%. The “% Inhibition Prostate” value in experiment [1] (p.o) was 40 p.o %. In addition, the “Human Androgen Receptor Binding (%) RBA R1881 = 100” value on Human Androgen Receptor was determined as 17%. Moreover, the “Shionogi Antiandrogenic Activity IC50” value in experiment [2] is recorded as “Partial agonist”. In addition, the change in vivo at 0.2 mg in experiment [3] (setting [7]) was determined as 74%; in experiment [3] (setting [8]) it was 28%; in experiment [3] (setting [9]) it was 27%.
For `CCS(=O)(=O)c1ccc(OCCCN2C(=S)N(c3ccc(C#N)c(Cl)c3C)C(=O)C2(C)C)cc1` [EM-8261], the “% Inhibition Lev.Ani” value in experiment [1] (p.o (marked in prostate cell)) worked out at 8%. Besides, the “% Inhibition SV” value in experiment [1] (p.o (marked in prostate cell)) came out at 25%. Besides, in experiment [1] (p.o), the “% Inhibition Prostate” value was found to be 38 p.o %. The “Human Androgen Receptor Binding (%) RBA R1881 = 100” value on Human Androgen Receptor is on record as 32%. Also, the “Shionogi Antiandrogenic Activity IC50” value in experiment [2] is reported as “Partial agonist”. Also, the change in vivo at 0.2 mg in experiment [3] (setting [7]) was 82%; in experiment [3] (setting [8]), 26%; in experiment [3] (setting [9]), 41%.
Regarding `Cc1c(N2C(=O)C(C)(C)N(CCCOc3ccc(-n4ccnc4)cc3)C2=S)ccc(C#N)c1Cl` [EM-8346], on Human Androgen Receptor, the “Human Androgen Receptor Binding (%) RBA R1881 = 100” value was 125%. For the same compound, the “Shionogi Antiandrogenic Activity IC50” value in experiment [2] is recorded as “Partial agonist”. Also, the change in vivo at 0.2 mg in experiment [3] (setting [7]) turned out to be 128%; in experiment [3] (setting [8]), 40%; in experiment [3] (setting [9]), 47%.
Regarding `CC(=O)Nc1ccc(OCCCN2C(=S)N(c3ccc(C#N)c(Cl)c3C)C(=O)C2(C)C)cc1` [EM-8362], at Human Androgen Receptor, the “Human Androgen Receptor Binding (%) RBA R1881 = 100” value came to 66%. In addition, the “Shionogi Antiandrogenic Activity IC50” value in experiment [2] is reported as “Partial agonist”. In addition, the figures for the change in vivo at 0.2 mg in experiment [3] (setting [7]), in experiment [3] (setting [8]) and in experiment [3] (setting [9]) were 105%, 43% and 33%, respectively.
Take `Cc1c(N2C(=O)C(C)(C)N(CCCOc3ccc(S(=O)(=O)C(C)C)cc3)C2=S)ccc(C#N)c1Cl` [EM-8363]: on Human Androgen Receptor, the “Human Androgen Receptor Binding (%) RBA R1881 = 100” value is reported as 52%. The “Shionogi Antiandrogenic Activity IC50” value in experiment [2] is recorded as “Partial agonist”. Moreover, the change in vivo at 0.2 mg in experiment [3] (setting [7]) came to 85%; in experiment [3] (setting [8]), 24%; in experiment [3] (setting [9]), 29%.
